Assay results published in patent publication US8022225B2, “Triazole derivative” (Taisho Pharmaceutical Co., Ltd, priority 2004, dated 2011).

What was measured:
human Edg-1(S1P1) [1] = target: T1, human Edg-1(S1P1) (Homo sapiens, UniProt P21453); assay: Cell system binding test: inhibition of [3H]-S1P binding to Edg-1(S1P1) gene transferred HEK-293 cells; conditions: 10 μM compound, [3H]-S1P 10 nM, read-out: Cell system binding test % inhibition (10 μM)
T1 construct: expressed in transfected cells; host or cells: HEK-293

human Edg-1(S1P1) [2] = target: T1, human Edg-1(S1P1); assay: Membrane system binding test: inhibition of [33P]-S1P binding to the membrane fraction of Edg-1(S1P1) gene transferred HEK-293 cells; conditions: 10 μM compound; [33P]-S1P 0.1 nM; membrane fraction of Edg-1(S1P1) gene transferred HEK-293 cells; read-out: Membrane system binding test % inhibition (10 μM)
Method in brief: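 Compound tested at 10^−5 M final (0.1% DMSO) for blocking 0.1 nM [^33P]-S1P binding to S1P1-expressing HEK-293 membranes, 30 °C, 1 h. Radioactivity retained on filters was counted, and percent inhibition derived relative to vehicle binding, correcting for the background of non-transfected HEK-293 membranes.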

T1 sequence (P21453 whole entry): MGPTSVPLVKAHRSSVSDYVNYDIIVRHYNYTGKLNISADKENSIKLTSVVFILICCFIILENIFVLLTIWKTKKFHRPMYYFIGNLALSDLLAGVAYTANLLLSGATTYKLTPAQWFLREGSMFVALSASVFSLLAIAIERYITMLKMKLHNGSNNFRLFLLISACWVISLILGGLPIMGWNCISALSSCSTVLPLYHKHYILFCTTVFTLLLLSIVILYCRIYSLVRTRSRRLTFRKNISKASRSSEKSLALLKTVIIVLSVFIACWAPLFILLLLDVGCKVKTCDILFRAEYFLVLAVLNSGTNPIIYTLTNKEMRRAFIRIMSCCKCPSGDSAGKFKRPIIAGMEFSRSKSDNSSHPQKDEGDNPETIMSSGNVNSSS

SMILES	inhibition at 10 µM (human Edg-1(S1P1) [1]) [%]	inhibition at 10 µM (human Edg-1(S1P1) [2]) [%]
CCn1c(OC)nnc1[C@H](C)NS(=O)(=O)c1ccc(NC(C)=O)cc1 [Compound 198]	92.5	46.7
CCn1c(OC)nnc1[C@@H](C)NS(=O)(=O)c1ccc(C(C)=O)cc1 [Compound 199]	93	54.9
CCn1c(OC)nnc1[C@@H](C)NS(=O)(=O)c1ccc(Br)cc1 [Compound 200]	97.4	93.3
CCn1c(OC)nnc1[C@H](C)NS(=O)(=O)c1ccc(C(C)(C)C)cc1 [Compound 201]	92.6	45.3
CCCCS(=O)(=O)N[C@H](C)c1nnc(OC)n1CC [Compound 202]	96.6	60.3
CCn1c(OC)nnc1[C@@H](C)NS(=O)(=O)c1cc(Br)c(Br)s1 [Compound 203]	97.9	88.3
CCn1c(OC)nnc1[C@H](C)NS(=O)(=O)c1ccccc1Br [Compound 204]	97.8	45.4
CCCCOc1ccc(S(=O)(=O)N[C@@H](C)c2nnc(OC)n2CC)cc1 [Compound 205]	99.6	47.4
CCn1c(OC)nnc1[C@@H](C)NS(=O)(=O)c1cccc(Br)c1 [Compound 206]	103	86.2
CCCCc1ccc(S(=O)(=O)N[C@H](C)c2nnc(OC)n2CC)cc1 [Compound 207]	95.8	43.5
CCn1c(OC)nnc1[C@@H](C)NS(=O)(=O)c1ccc(Br)s1 [Compound 208]	99.9	93
CCn1c(OC)nnc1[C@H](C)NS(=O)(=O)c1ccc(Cl)c([N+](=O)[O-])c1 [Compound 209]	91.4	104
CCn1c(OC)nnc1[C@@H](C)NS(=O)(=O)CCCCl [Compound 210]	91.8	46.6
CCn1c(OC)nnc1[C@@H](C)NS(=O)(=O)c1ccc(NC(C)=O)c(Cl)c1 [Compound 211]	93.9	46.9
CCn1c(OC)nnc1[C@@H](C)NS(=O)(=O)c1ccccc1C#N [Compound 212]	92.4	45.6
CCn1c(OC)nnc1[C@@H](C)NS(=O)(=O)c1cccc(C#N)c1 [Compound 213]	96.2	66.1
CCn1c(OC)nnc1[C@@H](C)NS(=O)(=O)c1sc2ccc(Cl)cc2c1C [Compound 214]	96.8	59.3
CCn1c(OC)nnc1[C@@H](C)NS(=O)(=O)c1ccc(C)c(Cl)c1 [Compound 215]	98.3	94.4

Other lines, results leading:

inhibition at 10 µM (human Edg-1(S1P1) [1]) [%]	inhibition at 10 µM (human Edg-1(S1P1) [2]) [%]	SMILES
97.2	63.7	CCn1c(OC)nnc1[C@@H](C)NS(=O)(=O)c1cc(Cl)cc(Cl)c1O [Compound 216]
97.4	62.3	CCn1c(OC)nnc1[C@@H](C)NS(=O)(=O)c1cc(Cl)sc1Cl [Compound 217]
101	40.2	CCn1c(OC)nnc1[C@@H](C)NS(=O)(=O)c1cccc2c(N(C)C)cccc12 [Compound 218]
97.2	98	CCn1c(OC)nnc1[C@@H](C)NS(=O)(=O)c1cc(Cl)c(Cl)s1 [Compound 220]
89.9	56.1	CCn1c(OC)nnc1[C@@H](C)NS(=O)(=O)c1ccc(OC)c(OC)c1 [Compound 221]
92.9	71.8	CCc1ccc(S(=O)(=O)N[C@H](C)c2nnc(OC)n2CC)cc1 [Compound 222]
95.5	70.4	CCn1c(OC)nnc1[C@@H](C)NS(=O)(=O)c1ccc(F)cc1 [Compound 223]
92.2	54.5	CCn1c(OC)nnc1[C@@H](C)NS(=O)(=O)C(C)C [Compound 224]
